Assays:
hAT1R [1] = target: T1, hAT1R (Homo sapiens, UniProt P30556); test: cell-based
T1 sequence (P30556 1-359): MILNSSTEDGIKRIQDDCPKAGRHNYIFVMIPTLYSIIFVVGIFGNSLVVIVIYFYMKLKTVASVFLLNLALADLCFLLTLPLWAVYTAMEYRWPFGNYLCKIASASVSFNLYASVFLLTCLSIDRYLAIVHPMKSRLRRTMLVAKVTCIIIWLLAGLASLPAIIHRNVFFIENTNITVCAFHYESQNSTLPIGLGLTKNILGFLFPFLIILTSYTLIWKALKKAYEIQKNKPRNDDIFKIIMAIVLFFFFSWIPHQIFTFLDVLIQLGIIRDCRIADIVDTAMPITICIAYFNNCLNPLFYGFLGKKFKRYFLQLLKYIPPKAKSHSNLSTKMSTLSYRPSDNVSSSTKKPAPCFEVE

hAT1R [2] = target: T1, hAT1R; test: BRET β-arrestin2 biosensor assay, higher receptor expression (hAT1R 5 ng/well), HEK293 cells; type: cell-based; details: for EC50: High AT1R Expression
AGTR1 [3] = target: T2, AGTR1 (Homo sapiens, UniProt P30556); test: DiscoveRx β-arrestin2 recruitment assay (enzyme complementation, Pathunter CHO-K1 AGTR1 β-arrestin cell line); type: cell-based; details: DiscoveRx β-arrestin2 recruitment; for DiscoveRx β-arrestin2 Ymax (%): maximal response
T2 construct: host or cells: Pathunter CHO-K1 AGTR1 β-arrestin cell line (CHO-K1)
T2 sequence (P30556 1-359): T1 sequence (P30556 1-359)
In short: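 CHO-K1 cells expressing AGTR1 with β-arrestin2 enzyme-complementation reporter, plated 14-16 h ahead in 1% serum medium, then exposed to compounds for 90 min at 37° C. Chemiluminescence read after 1 h detection. EC50 (agonist) or IC50 (antagonist) from 4-parameter logistic fit; activity as percentage of All maximal effect.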

AGTR1 [4] = target: T2, AGTR1; test: DiscoveRx IP1 accumulation assay (HTRF), agonist mode, Pathunter CHO-K1 AGTR1 β-arrestin cell line; type: cell-based; details: for EC50: read-out: IP-1 EC50
In short: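 Agonist mode in CHO-K1 AGTR1 β-arrestin cells plated 14-16 h before; compounds at varying concentrations for 90 min at 37° C, IP1 accumulation read by HTRF (D2-conjugate and anti-IP1 cryptate, 20 min room temperature). EC50 from 4-parameter logistic fit; activity given as percentage of maximal AII effect.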

hAT1R [5] = target: T1, hAT1R; test: cell-based; details: agonist mode; for EC50: read-out: BRET P63 EC50
[6] = Low AT1R Expression, read-out: BRET β-Arrestin2 Low AT1R Expression EC50
[7] = section of the 42nd table ending at r951, example numbering restarts after the DiscoveRx section, read-out: β-arrestin2 EC50

Row | Structure (SMILES) | BRET β-Arrestin2 Low AT1R Expression Ymax (%) (hAT1R [1]; Low AT1R Expression) | EC50 (hAT1R [1]; [6]) [µM] | BRET β-Arrestin2 High AT1R Expression Ymax (%) (hAT1R [2]) | EC50 (hAT1R [2]) [µM] | EC50 (AGTR1 [3]) [µM] | DiscoveRx β-arrestin2 Ymax (%) (AGTR1 [3]) | IP-1 Ymax (%) (AGTR1 [4]) | EC50 (AGTR1 [4]) [µM] | BRET P63 Ymax (hAT1R [5]) [%] | EC50 (hAT1R [5]) [µM] | EC50 (hAT1R [1]; [7]) [µM]
1 | CCc1nc2c(C)cc(C)nc2n1Cc1ccc(-c2cc(-c3cccc(C(F)(F)F)n3)ccc2-c2nn[nH]n2)cc1 [Example 61] | 38.2 | 0.108 | 81.4 | 0.0161 | 0.0315 | 43.7 | 9.8 | 0.15 | 6.4 | 0.0223 | 
2 | CCc1nc2c(C)cc(C)nc2n1Cc1ccc(-c2cc(-c3ccc(CO)cc3)ccc2-c2nn[nH]n2)cc1 [Example 63] | 59.3 | 0.0265 | 76.6 | 0.0075 | 0.0102 | 26.1 | 21.4 | 0.0513 | 12.4 | 0.0232 | 
3 | CCc1nc2c(C)cc(C)nc2n1Cc1ccc(-c2cc(-c3cc(C)ccn3)ccc2-c2nn[nH]n2)cc1 [Example 64] | 98.7 | 0.0031 | 92.5 | 0.0019 | 0.0069 | 67.8 | 30.8 | 0.0232 | 41.3 | 0.0026 | 
4 | CCc1nc2c(C)cc(C)nc2n1Cc1ccc(-c2cc(-c3ccccc3)ccc2-c2noc(=S)[nH]2)cc1 [Example 72, 3-(4″-((2-ethyl-5,7-dimethyl-3H-imidazo[4,5-b]pyridin-3-yl)methyl)-[1,1′:3′,1″-terphenyl]-4′-yl)-1,2,4-oxadiazole-5(4H)-thione] | 44.4 | 0.0582 | 85.8 | 0.0332 | 0.0226 | 63.6 | 8.5 | 0.092 | 11.8 | 0.043 | 
5 | CCc1nc2c(C)cc(C)nc2n1Cc1ccc(-c2cc(N3CCCC(F)(F)C3)ccc2-c2nn[nH]n2)cc1 [Example 83] | 43.1 | 0.152 | 87.3 | 0.0521 | 0.0239 | 40.5 | 9.0 | 0.0269 | 8.2 | 0.0548 | 
6 | CCC1=NC2(CCCC2)C(=O)N1Cc1ccc(-c2cc(-c3ccccc3)ccc2-c2nn[nH]n2)cc1 [Example 112, 3-((6′-(2H-tetrazol-5-yl)-[1,1′:3′,1″-terphenyl]-4-yl)methyl)-2-ethyl-1,3-diazaspiro[4.4]non-1-en-4-one] | 39.3 | 0.174 | 78.5 | 0.0306 | 0.124 | 33.4 | 7.7 | 0.284 | 8.2 | 0.0468 | 
7 | CCCC1=NC2(CCCC2)C(=O)N1Cc1ccc(-c2cc(-c3ccccc3)ccc2-c2nn[nH]n2)cc1 [Example 114, 3-((6′-(2H-tetrazol-5-yl)-[1,1′:3′,1″-terphenyl]-4-yl)methyl)-2-propyl-1,3-diazaspiro[4.4]non-1-en-4-one] | 57.2 | 0.0366 | 89.2 | 0.0119 | 0.0499 | 46.5 | 8.3 | 0.122 | 11.8 | 0.0665 | 
8 | CCCC1=NC2(CCCC2)C(=O)N1Cc1ccc(-c2cc(N3CCC[C@@H](C)C3)ccc2-c2nn[nH]n2)cc1 [Example 117] |  | > 100 | 35.0 | 0.0942 | 0.074 | 30.6 |  | > 100 |  | > 100 | 
9 | CCCCC1=NC2(CCCC2)C(=O)N1Cc1ccc(-c2cc(-c3ccc(C)cc3)ccc2-c2nn[nH]n2)cc1 [Example 122, 2-butyl-3-((4″-methyl-6′-(2H-tetrazol-5-yl)-[1,1′:3′,1″-terphenyl]-4-yl)methyl)-1,3-diazaspiro[4.4]non-1-en-4-one] | 31.6 | 0.0308 | 94.3 | 0.0175 | 0.0161 | 33.8 | 5.5 | 0.0354 |  | > 10 | 
10 | CCCCC1=NC2(CCCC2)C(=O)N1Cc1ccc(-c2cc(-c3ccc(C(=O)N(C)C)cc3)ccc2-c2nn[nH]n2)cc1 [Example 133] |  | > 10 | 69.0 | 0.0384 | 0.0057 | 18.0 |  | > 100 |  | > 10 | 
11 | CCCCC1=NC2(CCCC2)C(=O)N1Cc1ccc(-c2cc(-c3cc(C)ccn3)ccc2-c2nn[nH]n2)cc1 [Example 139] | 83.5 | 0.0414 | 95.0 | 0.0112 | 0.0105 | 50.1 | 16.8 | 0.0192 | 20.6 | 0.0344 | 
12 | CCCCC1=NC2(CCCC2)C(=O)N1Cc1ccc(-c2cc(-c3cc(OC)ccn3)ccc2-c2nn[nH]n2)cc1 [Example 141] | 58.9 | 0.0404 | 88.6 | 0.01 | 0.0135 | 31.5 |  | > 100 | 14.9 | 0.0133 | 
13 | CCc1nc2c(C)cc(C)nc2n1Cc1ccc(-c2cc(-c3cccc(C)c3)ccc2-c2nnn[nH]2)nc1 [Example 175, 2-ethyl-5,7-dimethyl-3-((6-(3′-methyl-4-(1H-tetrazol-5-yl)biphenyl-3-yl)pyridin-3-yl)methyl)-3H-imidazo[4,5-b]pyridine] |  |  | 93.0 | 0.0052 | 0.006 | 37.0 | 24.1 | 0.0128 | 12.4 | 0.0211 | 0.0107
14 | CCc1nc2c(C)cc(C)nc2n1Cc1ccc(-c2cc(-c3ccccc3)ccc2-c2nnn[nH]2)nc1 [Example 176, 3-((6-(4-(1H-tetrazol-5-yl)-[1,1′-biphenyl]-3-yl)pyridin-3-yl)methyl)-2-ethyl-5,7-dimethyl-3H-imidazo[4,5-b]pyridine] |  |  | 79.1 | 0.0255 | 0.0318 | 32.0 | 9.8 | 0.0489 |  | > 100 | 0.0306
15 | CCc1nc2c(C)cc(C)nc2n1Cc1ccc(-c2cc(-c3cccc(C)c3)ccc2-c2nnn[nH]2)cn1 [Example 177, 2-ethyl-5,7-dimethyl-3-((5-(3′-methyl-4-(1H-tetrazol-5-yl)biphenyl-3-yl)pyridin-2-yl)methyl)-3H-imidazo[4,5-b]pyridine] |  |  | 91.8 | 0.004 | 0.0118 | 52.2 | 22.9 | 0.113 | 23.8 | 0.0362 | 0.0115
16 | CCc1nc2c(C)cc(C)nc2n1Cc1ccc(-c2cc(-c3ccccc3O)ccc2-c2nnn[nH]2)cn1 [Example 178] |  |  | 89.3 | 0.0048 | 0.0071 | 75.6 | 20.8 | 0.0215 | 19.6 | 0.0256 | 0.0194
17 | CCc1nc2c(C)cc(C)nc2n1Cc1ccc(-c2cc(-c3ccccc3)ccc2-c2nnn[nH]2)cn1 [Example 179] |  |  | 90.6 | 0.0207 | 0.0407 | 58.3 | 12.2 | 0.0817 | 11.6 | 0.0523 | 0.0614
18 | CCc1nc2c(C)cc(C)nc2n1Cc1ccc(-c2cc(-c3ccc(CO)cc3)ccc2-c2nnn[nH]2)cn1 [Example 180] |  |  | 85.3 | 0.0508 | 0.0519 | 40.4 | 27.5 | 0.226 | 14.9 | 0.21 | 0.178
